Values quoted from earlier work, collected in patent US6127388A, “Azetidine, pyrrolidine and piperidine derivatives as 5-HT1D receptor agonists” (Merck Sharp & Dohme Ltd., priority 1996, dated 2000).

Details: therapeutic doses

## CNS(=O)(=O)Cc1ccc2[nH]cc(CCN(C)C)c2c1 [sumatriptan]
  adverse cardiovascular events in humans: certain adverse cardiovascular events
